Measured values from ChEMBL document CHEMBL4265895, “Novel inhibitors of As(III) S-adenosylmethionine methyltransferase (AS3MT) identified by virtual screening” (Bioorg Med Chem Lett, 2018).

Experiments:
[1] = molecular target: T1, Histone-lysine N-methyltransferase NSD2 (Homo sapiens, UniProt O96028); assay: Inhibition of full-length NSD2 (unknown origin) using HeLa oligonucleosome as substrate preincubated for 15 mins followed by substrate addition measured after 45 mins in presence of SAM by MTaseGlo assay
T1 sequence (O96028 whole entry): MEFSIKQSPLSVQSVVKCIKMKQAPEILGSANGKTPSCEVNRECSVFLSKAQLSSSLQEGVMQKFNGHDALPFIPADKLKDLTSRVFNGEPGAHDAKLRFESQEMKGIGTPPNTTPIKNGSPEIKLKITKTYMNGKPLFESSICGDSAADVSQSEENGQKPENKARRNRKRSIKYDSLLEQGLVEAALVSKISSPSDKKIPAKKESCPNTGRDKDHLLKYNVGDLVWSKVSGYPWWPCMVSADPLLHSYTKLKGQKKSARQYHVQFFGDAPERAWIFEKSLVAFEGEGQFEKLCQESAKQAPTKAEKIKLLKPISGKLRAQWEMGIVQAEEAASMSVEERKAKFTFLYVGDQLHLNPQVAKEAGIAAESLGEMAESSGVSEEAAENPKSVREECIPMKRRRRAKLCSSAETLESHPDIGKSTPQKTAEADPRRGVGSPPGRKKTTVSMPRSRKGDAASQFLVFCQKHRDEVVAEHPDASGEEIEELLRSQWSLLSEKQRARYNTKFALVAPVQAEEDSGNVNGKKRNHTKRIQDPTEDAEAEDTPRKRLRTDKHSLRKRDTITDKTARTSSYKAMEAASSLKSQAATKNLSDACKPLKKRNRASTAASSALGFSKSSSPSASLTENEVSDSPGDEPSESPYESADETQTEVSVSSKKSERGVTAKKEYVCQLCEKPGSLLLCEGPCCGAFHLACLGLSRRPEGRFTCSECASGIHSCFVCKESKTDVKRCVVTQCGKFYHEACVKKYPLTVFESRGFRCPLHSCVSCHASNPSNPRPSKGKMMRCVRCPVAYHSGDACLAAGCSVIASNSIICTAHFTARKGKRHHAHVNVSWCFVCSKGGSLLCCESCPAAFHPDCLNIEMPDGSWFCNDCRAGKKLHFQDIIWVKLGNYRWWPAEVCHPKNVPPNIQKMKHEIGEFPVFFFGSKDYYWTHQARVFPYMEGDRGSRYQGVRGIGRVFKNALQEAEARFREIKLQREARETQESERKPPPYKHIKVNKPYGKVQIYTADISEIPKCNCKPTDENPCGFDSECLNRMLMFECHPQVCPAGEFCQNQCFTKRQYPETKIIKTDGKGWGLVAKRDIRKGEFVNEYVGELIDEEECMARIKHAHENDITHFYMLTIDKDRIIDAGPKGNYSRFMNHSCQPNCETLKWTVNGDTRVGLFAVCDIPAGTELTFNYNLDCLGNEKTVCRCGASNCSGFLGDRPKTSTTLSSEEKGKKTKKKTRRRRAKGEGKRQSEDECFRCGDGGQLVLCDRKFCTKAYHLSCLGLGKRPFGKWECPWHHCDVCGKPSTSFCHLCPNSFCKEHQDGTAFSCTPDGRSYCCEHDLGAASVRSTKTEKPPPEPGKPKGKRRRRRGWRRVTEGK

[2] = molecular target: Histone-lysine N-methyltransferase, H3 lysine-79 specific (Homo sapiens, UniProt Q8TEK3); assay: Inhibition of full-length DOT1L (unknown origin) using HeLa oligonucleosome as substrate preincubated for 15 mins followed by substrate addition measured after 45 mins in presence of SAM by MTaseGlo assay
[3] = molecular target: T2, Arsenite methyltransferase (Homo sapiens, UniProt Q9HBK9); assay: Inhibition of human AS3MT using NaAsO2 as substrate preincubated for 30 minutes followed by substrate addition measured after 90 mins in presence of SAM
T2 sequence (Q9HBK9 whole entry): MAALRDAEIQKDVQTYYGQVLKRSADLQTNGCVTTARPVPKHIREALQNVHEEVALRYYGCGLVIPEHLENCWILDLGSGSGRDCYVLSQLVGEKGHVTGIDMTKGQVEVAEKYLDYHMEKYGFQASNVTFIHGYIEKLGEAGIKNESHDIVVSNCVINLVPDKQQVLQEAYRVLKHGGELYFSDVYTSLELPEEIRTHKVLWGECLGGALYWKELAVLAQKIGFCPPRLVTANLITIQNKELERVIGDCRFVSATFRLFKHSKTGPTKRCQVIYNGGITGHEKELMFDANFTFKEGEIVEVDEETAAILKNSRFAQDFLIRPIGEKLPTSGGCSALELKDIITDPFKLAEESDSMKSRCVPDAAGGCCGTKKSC

Chain of Histone-lysine N-methyltransferase, H3 lysine-79 specific (Q8TEK3 whole entry): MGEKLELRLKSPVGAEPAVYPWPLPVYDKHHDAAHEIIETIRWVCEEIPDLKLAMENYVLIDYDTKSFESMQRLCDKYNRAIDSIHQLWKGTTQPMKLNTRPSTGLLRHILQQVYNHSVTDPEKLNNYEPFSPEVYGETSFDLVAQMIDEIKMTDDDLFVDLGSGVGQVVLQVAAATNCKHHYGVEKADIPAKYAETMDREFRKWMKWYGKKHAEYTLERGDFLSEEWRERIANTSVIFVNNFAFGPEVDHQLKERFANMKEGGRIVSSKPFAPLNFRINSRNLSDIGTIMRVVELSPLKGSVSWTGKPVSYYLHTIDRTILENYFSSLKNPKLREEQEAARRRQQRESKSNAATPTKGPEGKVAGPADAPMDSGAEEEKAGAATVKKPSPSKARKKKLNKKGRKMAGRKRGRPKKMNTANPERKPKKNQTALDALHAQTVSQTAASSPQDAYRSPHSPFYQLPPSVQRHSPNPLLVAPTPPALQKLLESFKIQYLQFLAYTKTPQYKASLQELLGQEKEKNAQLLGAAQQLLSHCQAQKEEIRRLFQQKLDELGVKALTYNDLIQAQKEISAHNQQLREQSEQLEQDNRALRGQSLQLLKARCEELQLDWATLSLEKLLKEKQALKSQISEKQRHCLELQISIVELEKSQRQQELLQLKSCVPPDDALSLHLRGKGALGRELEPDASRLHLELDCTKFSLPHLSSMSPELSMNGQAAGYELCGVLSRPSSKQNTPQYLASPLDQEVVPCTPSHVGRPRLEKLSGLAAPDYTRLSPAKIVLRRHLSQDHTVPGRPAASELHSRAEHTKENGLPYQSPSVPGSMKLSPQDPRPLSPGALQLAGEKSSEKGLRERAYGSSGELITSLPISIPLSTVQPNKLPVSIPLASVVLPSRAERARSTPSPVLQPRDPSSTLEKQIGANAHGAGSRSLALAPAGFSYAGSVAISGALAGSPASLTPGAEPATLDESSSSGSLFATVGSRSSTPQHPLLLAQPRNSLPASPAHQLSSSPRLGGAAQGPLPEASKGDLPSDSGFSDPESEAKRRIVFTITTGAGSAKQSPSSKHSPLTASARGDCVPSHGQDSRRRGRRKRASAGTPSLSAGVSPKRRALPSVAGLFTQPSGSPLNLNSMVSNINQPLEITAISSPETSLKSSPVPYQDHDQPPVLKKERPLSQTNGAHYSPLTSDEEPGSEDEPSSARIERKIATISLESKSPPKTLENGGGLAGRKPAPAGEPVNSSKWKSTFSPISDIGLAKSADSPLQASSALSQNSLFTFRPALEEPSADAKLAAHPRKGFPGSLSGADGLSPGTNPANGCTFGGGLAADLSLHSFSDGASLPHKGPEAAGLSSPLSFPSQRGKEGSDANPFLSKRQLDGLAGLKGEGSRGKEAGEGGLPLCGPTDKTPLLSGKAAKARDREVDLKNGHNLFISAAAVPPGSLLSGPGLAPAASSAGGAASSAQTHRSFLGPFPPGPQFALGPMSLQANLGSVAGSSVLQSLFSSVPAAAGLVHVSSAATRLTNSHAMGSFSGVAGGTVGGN

IC50 [1] | IC50 [2] | IC50 [3] | Structure (SMILES)
9.1 µM | > 100 µM | 5 µM | N#Cc1c(N)[nH]c2ccc(Oc3ccc(NC(=O)[C@H](N)CO)cc3)cc12
12 µM | 99 µM | 1.8 µM | CCn1c(N)c(C#N)c2cc(Oc3ccc(NC(=O)CN)cc3)ccc21
47 µM | > 100 µM | 3.3 µM | Cn1c(N)c(C#N)c2cc(Oc3ccc(NC(=O)CN)cc3)ccc21
11 µM | > 100 µM | 3 µM | N#Cc1c(N)[nH]c2ccc(Oc3ccc(NC(=O)[C@@H](N)CO)cc3)cc12
 |  | 8.3 µM | CN(C)C(=O)Cn1c(N)c(C#N)c2cc(Oc3ccc(NC(=O)CN)cc3)ccc21
 |  | > 100 µM | CCn1cc(C#N)c2cc(Oc3ccc(NC(=O)CN)cc3)ccc21
 |  | 20 µM | N#Cc1c(N)n(CC(N)=O)c2ccc(Oc3ccc(NC(=O)CN)cc3)cc12
49 µM | > 100 µM | 3.6 µM | N#Cc1c(N)[nH]c2ccc(OCc3ccccc3)cc12
> 100 µM | > 100 µM | 1.4 µM | Cn1c(N)c(C#N)c2cc(OCc3cccc(N)c3)ccc21
> 100 µM | > 100 µM | 13.6 µM | Cn1c(N)c(C#N)c2cc(OCc3ccccc3)ccc21
 |  | 2.9 µM | Cn1c(N)c(C#N)c2cc(OCc3cccc(NC(=O)C(N)CO)c3)ccc21 (centres undefined)
5.8 µM | 96 µM | 1.5 µM | N#Cc1c(N)n(CC2CC2)c2ccc(Oc3ccc(NC(=O)CN)cc3)cc12
 |  | > 100 µM | CC(C)(C)C(=O)Nc1[nH]c2ccc(OCc3ccccc3)cc2c1C#N
